# Values joined by “and” are separate entries in the source; they are usually repeats but may differ in a detail not shown here. Equal values may be shown once. Active and inactive are the calls of the source.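 The calls were made as follows: active = compounds giving half or more protection of infected cells from virus-caused growth loss, again on retest; inactive = the rest.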 Where a SMILES comes first, the peptide text is derived from it. The star is where a group is joined. Boc = CC(C)(C)OC(=O)*
# Test system: CEM cells HIV-1 protection, formazan growth assay
# Test: NCI AIDS Antiviral Assay
# Conditions: for IC50: measured here: growth of uninfected CEM cells
# Method in brief: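 Soluble formazan readout of cell growth; CEM cells ± HIV-1; 5 drug concs. ≥50% protection → retest; ≥50% again = moderately active; reproducible 100% = confirmed active.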
SMILES,EC50,IC50,outcome
Cc1nc2c(O)c3c(c(O)c2nc1C)C1C=CC3CC1,> 200 µM,1.95 µM,
CC(=O)c1ccc2c(c1)CC1(C2)Cc2ccccc2C1=O (stereo not drawn),> 200 µM,74.1 µM,
O=c1cc(S(=O)(=O)Cc2ccccc2)[nH]c(=O)[nH]1,> 135 µM,> 135 µM,
NC(Cc1ccc(OCc2ccccc2)cc1)C(=O)NC(Cc1ccccc1)C(=O)Oc1c(Cl)c(Cl)c(Cl)c(Cl)c1Cl (stereo not drawn),> 200 µM,28.8 µM,
O=C1OC(c2cccs2)Sc2ccccc21 (stereo not drawn),> 200 µM,195 µM,
CC(=O)Nc1nc(C#N)[nH]c1C#N,> 200 µM,> 200 µM,
CC(=O)Oc1ccc(/C=C/C(=O)O[C@@H](C)[C@H](C)OC(=O)/C=C/c2ccc(OC(C)=O)c(OC(C)=O)c2)cc1OC(C)=O,> 100 µM,5.62 µM,
COC(CN1CCOCCOCCOCC1)CN1CCOCCOCCOCC1,> 2510 µM,> 2510 µM,
CCCCCCCCCCCCCCCCCC[N+](C)(C)Cc1ccc(C[N+](C)(C)CCCCCCCCCCCCCCCCCC)cc1,,,inactive
COC(=O)[C@H](CCCN=C(N)N)NC(=O)CCCCCCCCCCNC(=O)c1cc(CNC2=NCCN2)cc(CNC2=NCCN2)c1,> 100 µM,> 100 µM,
CCC(=O)/C=C/c1ccccc1,> 200 µM,93.3 µM,
COC1CCC(O)C(CO)O1 (stereo not drawn),,,inactive
CCc1cccc(CC)c1NC(=O)C1=C(C)NC(C)=C(C(=O)Nc2c(CC)cccc2CC)C1c1ccc2c(c1)OCO2,> 44.7 µM,23.4 µM,
CCOC(=O)Cc1cnc(NC(NC(=O)CC)(C(F)(F)F)C(F)(F)F)s1,> 200 µM,> 200 µM,
CC(C)Cc1cccc(C(C)C)c1NC(=O)CCC(=O)N/N=C1\C(=N/NC(=O)CCC(=O)Nc2c(C(C)C)cccc2C(C)C)C(c2ccc3c(c2)OCO3)Oc2ccccc21 (stereo not drawn),> 112 µM,81.3 µM,
CC(=O)OCC1OC(N2C(=O)[C@@H](Oc3ccccc3)[C@H]2c2ccccc2)C(OC(C)=O)C(OC(C)=O)C1OC(C)=O (stereo partly drawn),> 200 µM,174 µM,
CCOC(=O)C1(C(=O)OCC)C[C@@H](C)[C@@H](O)C1,> 200 µM,> 200 µM,
COc1ccc(/C=C2\C=Cc3ccccc32)cc1,> 16.2 µM,13.8 µM,
COc1ccc(-c2c(C#N)c(N)n(C3OC(COC(C)=O)C(OC(C)=O)C(OC(C)=O)C3OC(C)=O)c(=S)c2C#N)cc1 (stereo not drawn),> 200 µM,83.2 µM and 115 µM,
CC(=O)NC1=C(C)C(=O)c2c(nc3n2CCC3OC(=O)c2ccccc2)C1=O (stereo not drawn),> 200 µM,0.977 µM,
FC(F)=C(c1ccc(-c2ccc(Cl)cc2)cc1)C(F)(F)F,> 200 µM,20.9 µM,
O=c1c(-c2ccc3c(c2)OCO3)coc2cc(O)ccc12,> 200 µM,> 200 µM,

SMILES,EC50,IC50,outcome
COc1ccc2c(c1OC)C1N(C)CCc3cc4c(cc3C1(OC)C2=O)OCO4 (stereo not drawn),,,inactive
O=C(O)/C(=C\c1ccccc1Cl)S(=O)(=O)c1ccccc1,,,inactive
COC(=O)C(Cc1cccc(OC)c1)NC(=O)OC(C)(C)C (stereo not drawn),,,inactive
COc1ccc(C(=C(I)c2ccccc2)c2ccc(OC)cc2)cc1,> 200 µM,182 µM,
CC(=O)Nc1ncc2ccccc2c1-c1ccc(NC(=O)CN(CCO)CCO)cc1,> 200 µM,> 200 µM,
Cn1c(=O)c2nc(NCCO)cnc2n(C)c1=O,> 200 µM,85.1 µM,
CC(C)=C1C(=O)NC(=O)C1C(N)=O (stereo not drawn),> 200 µM,> 200 µM,
O=S(c1ccccc1)[C@H]1CC2C3CC4C2C4C31 (stereo partly drawn),> 107 µM,> 107 µM,
S=c1ssc2ccccc12,> 97.7 µM,91.2 µM,
Cc1cc(C)c2c(c1)C/C(=C\c1cccc(C)c1C(=O)O)C2=O,> 200 µM,129 µM,
CC1(C)C(N2CCOCC2)CS1(=O)=O (stereo not drawn),> 200 µM,> 200 µM,
CC(C)(O)C1CCC2(C)CC(=O)NCCN12 (stereo not drawn),> 398 µM,> 398 µM,
COc1ccc(C(c2c(O)c3ccccc3oc2=O)N2CCCC2)c(OC)c1 (stereo not drawn),> 200 µM,95.5 µM,
Cc1c(C)c2cc3c(=O)ccoc3c(C)c2oc1=O,> 20.4 µM,> 20.4 µM,
CCOC(=O)c1[nH]c2cccc3c2c1CC[C@H](NC(=O)C(F)(F)F)C3=O,> 200 µM,> 200 µM,
Clc1ccccc1C1SCc2nc3ncccc3n21 (stereo not drawn),> 91.2 µM,67.6 µM,
CC1(C)C(=O)C(C(Cl)(Cl)Cl)=C(Cl)C(=O)C1(Cl)Cl,> 200 µM,25.7 µM,
c1ccc(C(=C2C3CCC2C2CSCC32)c2ccccc2)cc1 (stereo not drawn),> 93.3 µM,46.8 µM,
C/C(O)=C(\C=N\C(N)=S)C(=O)Nc1ccccc1C,> 200 µM,> 200 µM,
CCc1cccc(C(C)C)c1NC(=O)C(=O)C1C(=O)NC(=O)NC1=O,,,inactive
COc1ccc(N=Nc2c(-c3ccccc3)nn(C(=O)CC(=O)Nc3ccc(OC)cc3)c2-c2ccccc2)cc1,> 25.1 µM,> 25.1 µM,
CNc1ccc(OC)cc1S(=O)(=O)c1ccccc1[N+](=O)[O-],148 µM,182 µM,

SMILES,EC50,IC50,outcome
COC(=O)CNC(=O)C(Cc1ccccc1)NC(=O)C(Cc1ccccc1)NC(=O)OC(C)(C)C (stereo not drawn) (Boc-Phe-Phe-Gly-OMe; configuration not given here),> 200 µM,24 µM,
CCN(CC)CCCNc1ccc([N+](=O)[O-])c2nc3ccccc3c(N)c12,> 200 µM,0.214 µM,
[N-]=[N+]=NC1CC(n2ccc(=O)[nH]c2=O)OC1CO (stereo not drawn),2.88 µM,20 µM,
COc1cc(CCCl)c(CC2=NCCc3cc(OC)c(OC)cc32)cc1OC,> 200 µM,31.6 µM,
CC(=O)Nc1ccc(/C=C2\N=C(c3ccccc3)OC2=O)cc1,> 12.3 µM,> 12.3 µM,
O=C(O)c1ccc2[nH]c(=O)oc2c1,> 200 µM,> 200 µM,
CCCC(=O)OC1C(OC(=O)CCC)C(OC(=O)CCC)C(OC(=O)CCC)C(OC(=O)CCC)C1OC(=O)CCC (stereo not drawn),> 417 µM,> 417 µM,
O=C1C=CC(=O)C2C1Cc1ccccc1C2c1ccccc1 (stereo not drawn),,,inactive
Cc1ccc(S(=O)(=O)N2CCCN(S(=O)(=O)c3ccc(C)cc3)CCSCCCSCC2)cc1,> 200 µM,31.6 µM,
CCN(CC)CCn1c(=O)c2cccnc2n2c3c(=O)n(C)c(=O)n(C)c3nc12,> 129 µM,60.3 µM,
COc1ccc(CCCNC(=O)c2cc(OC)c(OC)cc2CCO)cc1OC,> 200 µM,> 200 µM,
COc1ccc(-n2cc3c(c2)C(=O)OC3=O)cc1OC,,,inactive
C/C=C/C=C1\C=Cc2c(C(=O)OC)coc(=O)c21,> 200 µM,35.5 µM,
CC(=O)O[C@H]1[C@@H]2CC(C)(C)CC2=C(C=O)C2(C=O)CC12C (stereo partly drawn),> 200 µM,13.5 µM,
CC(C)(C)NC(=O)CCC1C(C(=O)NC(C)(C)C)C2(Cl)C(Cl)=C(Cl)C1(Cl)C2(Cl)Cl (stereo not drawn),> 200 µM,> 200 µM,
N#Cc1c(-c2ccco2)cc(-c2ccccc2)[nH]c1=O,> 20 µM,> 20 µM,
CON1C(=O)C2(CCCCC2)C(=O)C12C=CC(C)CC2 (stereo not drawn),> 162 µM,> 162 µM,
NC(=O)c1cccn1Cc1ccccc1SSc1ccccc1Cn1cccc1C(N)=O,> 15.8 µM,7.08 µM,
C1CCC2(CC1)SSSC1(CCCCC1)SS2,> 100 µM,> 100 µM,
NS(=O)(=O)c1ccc(N=NC2Sc3nc4ccccc4n3C2=O)cc1 (stereo not drawn),,,inactive
O=[N+]([O-])C(=C(\Cl)NCCO)/C(Cl)=C(/Cl)Br,> 20 µM,1 µM,
CCCCCCCCCCCCCCCC=C(c1cc(Br)c(OC)c(C(=O)OC)c1)c1cc(Br)c(OC)c(C(=O)OC)c1,> 27.5 µM,> 27.5 µM,

SMILES,EC50,IC50,outcome
Cc1cc(C)nc(NS(=O)(=O)c2ccc(NC(=O)c3ccc(Cl)c4c(Nc5ccc(S(=O)(=O)Nc6nc(C)cc(C)n6)cc5)c5ccccc5nc34)cc2)n1,> 45.7 µM,24.5 µM,
Nc1n[nH]c2c(C(=O)Nc3ccc(Cl)cc3)c(N)n(N)c(=O)c12,> 200 µM,> 200 µM,
Cc1ccc(/C=N/n2c(Cc3ccccc3)n[nH]c2=O)cc1,> 200 µM,> 200 µM,
CC(C)=[CH][Sb]([Br])([CH]=C(C)C)([CH]=C(C)C)[CH]=C(C)C,> 589 µM,3.02 µM,
O=C(O)c1nc2cc(C(F)(F)F)ccc2[nH]c1=O,> 200 µM,> 200 µM,
CC1=CC(=O)/C(=C/N2C(=S)NC(=O)/C2=C/c2cccc([N+](=O)[O-])c2)C(=O)O1,> 200 µM,138 µM,
O=C1CCCC/C1=C\c1ccc([N+](=O)[O-])cc1,> 200 µM,6.03 µM,
CCCCNC(=O)Nc1c(C(N)=O)c2n(c1C(=O)OCC)CCCCC2,> 50.1 µM,> 50.1 µM,
COc1ccc2c(c1)CCCN1Cc3ccccc3CC21 (stereo not drawn),> 200 µM,141 µM,
C=CC1C(OC2OC(CO)C(O)C(O)C2O)OC=C(C(=O)OC)C1CC=O (stereo not drawn),> 646 µM,> 646 µM,
NC(C/C=C/P(=O)(O)O)C(=O)O (stereo not drawn),> 200 µM,155 µM,
O=C(NCCN1CCOCC1)c1ccc(I)cc1,> 200 µM,> 200 µM,
O=C(O)c1cc[c]([Sb](=[O])([OH])[OH])cc1,29.5 µM,> 200 µM,
CCOc1ccccc1C1N2CCN(CC2)C(c2ccccc2OCC)N2CCN1CC2 (stereo not drawn),,,inactive
C1C2OC2C2C1C1CC2C2OC12 (stereo not drawn),> 1510 µM,> 1510 µM,
O=C(Cc1ccccc1[N+](=O)[O-])C(CO)c1ccccc1[N+](=O)[O-] (stereo not drawn),> 110 µM,> 110 µM,
CCOC(=O)C(NC(=O)c1cccc(Cl)c1)(N1CCN(c2cc3c(cc2F)c(=O)c(C(=O)O)cn3C2CC2)CC1)C(F)(F)F (stereo not drawn),> 20 µM,10.2 µM,
Cc1nc(Nc2ccccc2Cl)c2ccsc2n1,,,inactive
COc1nc(N(C)C)nc2c1n(C)c[n+]2C,> 107 µM,12.6 µM,
C[C@H](C(=O)C12CC3CC(CC(C3)C1)C2)[C@H](O)c1ccccc1,,,inactive
Cc1ccn2c(c1)nc1nc3ccccc3nc12,> 214 µM,110 µM,
Cc1cccc(C(C)(C)C)c1NC(=O)C(=O)Cc1nc2ccccc2s1,,,inactive
